Source: ChEMBL document CHEMBL1150035, “Potent, non-peptidic oxytocin receptor antagonists from a natural source” (Bioorg Med Chem Lett, 1993)

Assays:
[1] = molecular target: T1, Oxytocin receptor (Rattus norvegicus, UniProt P70536); test: Compound was tested for its ability to inhibit binding of Oxytocin to its Oxytocin receptor in rat uterine tissue
T1 sequence (P70536 whole entry): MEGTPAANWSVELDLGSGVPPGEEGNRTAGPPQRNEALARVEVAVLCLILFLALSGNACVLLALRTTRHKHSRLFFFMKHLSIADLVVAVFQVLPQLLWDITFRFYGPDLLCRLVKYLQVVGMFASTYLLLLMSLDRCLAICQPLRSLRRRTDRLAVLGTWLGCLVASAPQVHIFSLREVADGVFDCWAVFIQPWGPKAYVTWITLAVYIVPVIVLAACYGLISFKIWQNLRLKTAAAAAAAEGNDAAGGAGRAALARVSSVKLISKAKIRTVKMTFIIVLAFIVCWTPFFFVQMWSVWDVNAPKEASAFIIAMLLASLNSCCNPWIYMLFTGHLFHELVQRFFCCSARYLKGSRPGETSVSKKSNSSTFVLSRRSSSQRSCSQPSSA

[2] = Compound was tested for its ability to inhibit binding of arginine vasopressin to Vasopressin receptor (V1 subtype)

SMILES	IC50 [1] [µM]	IC50 [2] [µM]
COc1c([C@H](CC(C)C)OC(C)=O)ccc2c1C(=O)OCc1cc(C)cc(OC(C)=O)c1O2	5	–
COc1cc(C)cc2c1Oc1ccc([C@H](CC(C)C)OC(C)=O)c(OC)c1C(=O)OC2	21	> 100
COc1c([C@H](CC(C)C)OC(C)=O)ccc2c1C(=O)Oc1cc(C)cc(C=O)c1O2	> 100	–

Results, then the compound that gave them:

IC50 [1] [µM]	IC50 [2] [µM]	SMILES
8.4	> 100	COc1c([C@H](CC(C)C)OC(C)=O)ccc2c1C(=O)OCc1cc(C)cc(O)c1O2
> 100	–	COc1c(C(=O)CC(C)C)ccc2c1C(=O)OCc1cc(C)cc(O)c1O2
> 100	–	COc1cc(C)cc2c1Oc1ccc([C@@H](O)CC(C)C)c(OC)c1C(=O)OC2
67	–	COc1c([C@@H](O)CC(C)C)ccc2c1C(=O)OCc1cc(C)cc(O)c1O2 [PENICILLIDE]
